# Assay results from US9989533B2, “Anti-TNF induced apoptosis (ATIA) diagnostic markers and therapies” (The United States of America, as represented by the …, priority 2009, dated 2018).
# Like-named read-outs stand apart in the source and are kept apart here.
# B1: TRAIL: tumour necrosis factor-related apoptosis-inducing ligand (protein, UniProt P50591 1-281, looked up)
# Tumor necrosis factor ligand …: MAMMEVQGGPSLGQTCVLIVIFTVLLQSLCVAVTYVYFTNELKQMQDKYSKSGIACFLKEDDSYWDPNDEESMNSPCWQVKWQLRQLVRKMILRTSEETISTVQEKQQNISPLVRERGPQRVAAHITGTRGRSNTLSSPNSKNEKALGRKINSWESSRSGHSFLSNLHLRNGELVIHEKGFYYIYSQTYFRFQEEIKENTKNDKQMVQYIYKYTSYPDPILLMKSARNSCWSKDAEYGLYSIYQGGIFELKENDRIFVSVTNEHLIDMDHEASFFGAFLVG
# What was measured:
# ATIA [1] = assay type: cell-based
# A172 cells = assay: apoptosis (annexin positive cells) after cyclohexamide treatment under hypoxia (FIG. 28 top); assay type: cell-based, human; conditions: in the presence of CHX
# Experimental: (§1) FIG. 28 is two panels that show the effect of cyclohexamide on ATIA stability and cell apoptosis.
# (§2) Experiments were performed with small chemical molecules to reduce ATIA levels in cancer cells. Examples of small molecules that can be used include, but are not limited to, cyclohexamide. […] Preferably, […] is administered locally to the tumor.
# ATIA [2] = assay: effect of cyclohexamide on ATIA stability, blot (FIG. 28 bottom); assay type: cell-based, human
# Experimental: as §1, §2
# ATIA+/+ and ATIA−/− mice = assay type: in vivo; conditions: GalN pretreatment, TNFα 2 μg/Kg intravenous, by 8 hr post-treatment
# Experimental: (A) is a schematic diagram of ATIA knockout strategy. (B) and (C) show the generation of ATIA+/− ES cells (B) and ATIA+/− and ATIA−/− mice (C) was confirmed by PCR. […] Survival curves of wild-type (n=5) and ATIA KO (n=8) after TNF treatment. […] Tissue sections were analyzed by H&E (left panels) and TUNNEL (right panels) staining.
# To determine whether ATIA is able to protect from TNF-induced apoptosis in vivo, a model of TNF-induced hepatitis (26, 27) was used. […] By 8 hr post-treatment, 20% of ATIA+/+ mice as compared to more than 85% of ATIA—mice were moribund (FIG. 5D). […] No other histological differences were noted. […] To further confirm this observation, we also examined TNF-induced apoptosis in ATIA−/− MEFs. Wild-type and ATIA−/− mouse embryonic fibroblast cell lines were established from 10.5-12.5 day old wild-type and ATIA knockout embryos. The cell lines were verified for the loss of ATIA by genomic PCR analysis and western blotting with the anti-ATIA antibody (data not shown). Cells were treated with TNF and varied doses of cyclohexamide (CHX) (FIG. 6A). […] Cell death induced by UV radiation or staurosporine is however, only moderately affected by the loss of ATIA (FIG. 6B).
# [3] = system: A172, U87MG and 251 glioblastoma cells; assay: TRAIL-induced cell death in glioblastoma cells (FIG. 19); assay type: cell-based; conditions: ATIA-expressing human glioblastoma cells (A172) versus cells which do not express ATIA (U87MG); TRAIL 20 ng/ml, 24 h
# Source text: Next, the sensitivity of ATIA expressing cells to TRAIL-induced cell death was examined. FIG. 19, left panel, is a western blot showing the expression of ATIA in various glioblastoma cell types.
molecule,measurement,setting,value
[Cl-].[Cl-].[Co+2] [CoCl2],ATIA protein expression,ATIA [1],considerably increased
C[C@@H]1C[C@@H]([C@H](O)CC2CC(=O)NC(=O)C2)C(=O)[C@@H](C)C1 [cycloheximide],apoptosis under hypoxia,A172 cells,undergo apoptosis
same,effect on ATIA level,"ATIA [2]; 0.5 ug, A172 Cells",causes the decrease of ATIA
same,effect on ATIA levels,"ATIA [2]; low levels (e.g. 0.1 μg-1.0 μg), tumor cells",reduces ATIA levels
TNFα,moribund mice,ATIA+/+ and ATIA−/− mice; ATIA+/+ mice,20%
same,moribund mice,ATIA+/+ and ATIA−/− mice; ATIA−/− mice,more than 85%
B1,sensitivity to TRAIL-induced cell death,[3],much more sensitive to TRAIL-induced cell death
